Literature values as cited in patent US20220023282A1 (priority 2018, published 2022).

Test system: Mycobacterium tuberculosis isolates
Conditions: variety of Mycobacterium tuberculosis isolates, regardless of resistance to other anti-TB drugs; cited from earlier work

## COc1nc2ccc(Br)cc2cc1[C@@H](c1ccccc1)[C@@](O)(CCN(C)C)c1cccc2ccccc12 [bedaquiline, (1R,2S)-1-(6-bromo-2-methoxyquinolin-3-yl)-4-(dimethylamino)-2-(naphthalen-1-yl)-1-phenylbutan-2-ol]
  Minimum Inhibitory Concentration (MIC) 99: 0.01 to 0.1 µg/mL
